Converted amounts (≈) assume the structure as drawn.
Tests used:
[1] = tested on: Staphylococcus aureus, methicillin susceptible; experiment: Standard microdilution susceptibility test, clinical isolates; type: cell-based; conditions: 10 clinical isolates; for MIC50 / MIC90: Staphylococcus aureus; for MIC50: read-out: MIC 50%; for MIC90: read-out: MIC 90%
[2] = tested on: Staphylococcus aureus, methicillin resistant; experiment: as above; type: cell-based; conditions: 10 clinical isolates; for MIC50 / MIC90: Staphylococcus aureus; for MIC50: read-out: MIC 50%; for MIC90: read-out: MIC 90%
[3] = tested on: Coagulase-negative Staphylococus sp., methicillin susceptible; experiment: as above; type: cell-based; conditions: 10 clinical isolates; for MIC50: read-out: MIC 50%; for MIC90: read-out: MIC 90%
[4] = tested on: Coagulase-negative Staphylococus sp., methicillin resistant; experiment: as above; type: cell-based; conditions: 10 clinical isolates; for MIC50: read-out: MIC 50%; for MIC90: read-out: MIC 90%
[5] = tested on: Enterococcus sp., vancomycin susceptible; experiment: as above; type: cell-based; conditions: 20 clinical isolates; for MIC50 / MIC90: Enterococcus; for MIC50: read-out: MIC 50%; for MIC90: read-out: MIC 90%
[6] = tested on: Enterococcus sp., decreased vancomycin susceptibility; experiment: as above; type: cell-based; conditions: 5 clinical isolates
[7] = tested on: Streptococcus pneumoniae, penicillin susceptible; experiment: as above; type: cell-based; conditions: for MIC Range / Ratio of Sensitive/Total / MIC50 / MIC90 / MIC 50% / MIC 90%: 10 clinical isolates; for MIC50 / MIC90: Streptococcus pneumoniae; for MIC50: read-out: MIC 50%; for MIC90: read-out: MIC 90%; for MIC: single isolate
[8] = tested on: Streptococcus pneumoniae, penicillin resistant; experiment: as above; type: cell-based; conditions: for MIC50 / MIC90: Streptococcus pneumoniae; for MIC50: read-out: MIC 50%; for MIC90: read-out: MIC 90%
[9] = tested on: Streptococcus viridans sp.; experiment: as above; type: cell-based; conditions: 20 clinical isolates; for MIC50 / MIC90: Streptococcus viridans; for MIC50: read-out: MIC 50%; for MIC90: read-out: MIC 90%
[10] = tested on: Staphylococcus epidermidis 7586; conditions: cited from earlier work
[11] = tested on: Staphylococcus aureus 7503; conditions: cited from earlier work
[12] = tested on: Diphteroides 8264; conditions: cited from earlier work
[13] = tested on: Staphylococcus saprophyticus 8454; conditions: cited from earlier work
[14] = tested on: Serotype β Streptococcus 8252; conditions: cited from earlier work
[15] = tested on: Streptococcus mitis 5728; conditions: cited from earlier work
[16] = tested on: Staphylococcus hominis 7835; conditions: cited from earlier work
[17] = tested on: Streptococcus simulans 7866; conditions: cited from earlier work
[18] = tested on: Micrococcus spp.; conditions: cited from earlier work
[19] = tested on: Staphylococcus capitis; conditions: cited from earlier work
[20] = tested on: Staphylococcus aureus ATCC 25923; conditions: cited from earlier work
[21] = tested on: Escherichia coli B 1218; conditions: cited from earlier work
[22] = tested on: Enterobacter cloacae B 520; conditions: cited from earlier work
[23] = tested on: Bacillus subtilis ATCC 6633; conditions: cited from earlier work
[24] = tested on: Propionibacterium acnes; conditions: cited from earlier work

CC1COc2c(N3CCN(C)CC3)c(F)cc3c(=O)c(C(=O)O)cn1c23 (centres unmarked) [Ofloxacin]
MIC Range [1]: 0.5 to 1 mg/L
Ratio of Sensitive/Total [1]: 10/10
MIC50 [1]: 0.5 mg/L (≈ 1.38 µM)
MIC90 [1]: 1 mg/L (≈ 2.77 µM)
Ratio of Sensitive/Total [2]: 1/10
MIC50 [2]: 16 mg/L (≈ 44.3 µM)
MIC90 [2]: > 16 mg/L
MIC Range [3]: 0.25 to 1 mg/L
Ratio of Sensitive/Total [3]: 10/10
MIC50 [3]: 1 mg/L (≈ 2.77 µM)
MIC90 [3]: 1 mg/L (≈ 2.77 µM)
Ratio of Sensitive/Total [4]: 0/10
MIC50 [4]: > 16 mg/L
MIC90 [4]: > 16 mg/L
Ratio of Sensitive/Total [5]: 3/20
MIC50 [5]: 4 mg/L (≈ 11.1 µM)
MIC90 [5]: > 16 mg/L
MIC Range [6]: 2 to 8 mg/L
Ratio of Sensitive/Total [6]: 2/5
MIC Range [7]: 1 to 4 mg/L
Ratio of Sensitive/Total [7]: 9/10
MIC50 [7]: 2 mg/L (≈ 5.53 µM)
MIC90 [7]: 2 mg/L (≈ 5.53 µM)
MIC Range ([8]; 10 clinical isolates): 1 to 2 mg/L
Ratio of Sensitive/Total ([8]; 10 clinical isolates): 10/10
MIC50 ([8]; 10 clinical isolates): 1 mg/L (≈ 2.77 µM)
MIC90 ([8]; 10 clinical isolates): 2 mg/L (≈ 5.53 µM)
MIC Range [9]: 1 to 8 mg/L
Ratio of Sensitive/Total [9]: 14/20
MIC50 [9]: 2 mg/L (≈ 5.53 µM)
MIC90 [9]: 4 mg/L (≈ 11.1 µM)

[H]/N=C(/N)N[C@H]1[C@H](O)[C@@H](O)[C@H](O[C@@H]2O[C@@H](C)[C@](O)(C=O)[C@H]2O[C@@H]2O[C@@H](CO)[C@H](O)[C@@H](O)[C@@H]2NC)[C@@H](N/C(N)=N\[H])[C@@H]1O [Streptomycin]
MIC [10]: 2.0 mg/L (≈ 3.44 µM)
MIC [11]: 2.0 mg/L (≈ 3.44 µM)
MIC [12]: >250 mg/L
MIC [13]: 1.0 mg/L (≈ 1.72 µM)
MIC [14]: 3.9 mg/L (≈ 6.71 µM)
MIC [15]: 250 mg/L (≈ 430 µM)
MIC [16]: 2.0 mg/L (≈ 3.44 µM)
MIC [17]: 2.0 mg/L (≈ 3.44 µM)
MIC [18]: 3.9 mg/L (≈ 6.71 µM)
MIC [19]: 3.9 mg/L (≈ 6.71 µM)
MIC [20]: 3.9 mg/L (≈ 6.71 µM)
MIC [21]: 15.6 mg/L (≈ 26.8 µM)
MIC [22]: 7.8 mg/L (≈ 13.4 µM)
MIC [23]: 1.0 mg/L (≈ 1.72 µM)
MIC [24]: <0.5 mg/L

CN(C)[C@@H]1C(O)=C(C(N)=O)C(=O)[C@@]2(O)C(O)=C3C(=O)c4c(O)cccc4[C@@](C)(O)[C@H]3[C@H](O)[C@@H]12 [Oxytetracycline]
MIC Range [1]: 0.25 to 32 mg/L
Ratio of Sensitive/Total [1]: 8/10
MIC50 [1]: 0.25 mg/L (≈ 0.543 µM)
MIC90 [1]: 32 mg/L (≈ 69.5 µM)
MIC Range [2]: 0.125 to 0.25 mg/L
Ratio of Sensitive/Total [2]: 10/10
MIC50 [2]: 0.25 mg/L (≈ 0.543 µM)
MIC90 [2]: 0.25 mg/L (≈ 0.543 µM)
Ratio of Sensitive/Total [3]: 9/10
MIC50 [3]: 0.25 mg/L (≈ 0.543 µM)
MIC90 [3]: 1 mg/L (≈ 2.17 µM)
Ratio of Sensitive/Total [4]: 8/10
MIC50 [4]: 1 mg/L (≈ 2.17 µM)
MIC90 [4]: > 32 mg/L
Ratio of Sensitive/Total [5]: 6/20
MIC50 [5]: 16 mg/L (≈ 34.7 µM)
MIC90 [5]: 32 mg/L (≈ 69.5 µM)
MIC Range [6]: 0.25 to 16 mg/L
Ratio of Sensitive/Total [6]: 2/5
MIC Range [7]: 1 to 8 mg/L
Ratio of Sensitive/Total [7]: 8/10
MIC50 [7]: 1 mg/L (≈ 2.17 µM)
MIC90 [7]: 8 mg/L (≈ 17.4 µM)
Ratio of Sensitive/Total ([8]; 10 clinical isolates): 1/10
MIC50 ([8]; 10 clinical isolates): 32 mg/L (≈ 69.5 µM)
MIC90 ([8]; 10 clinical isolates): > 32 mg/L
Ratio of Sensitive/Total [9]: 10/20
MIC50 [9]: 4 mg/L (≈ 8.69 µM)
MIC90 [9]: > 32 mg/L

Neomycin
MIC 50% [1]: 1 mg/L
MIC 90% [1]: 2 mg/L
MIC Range [1]: 0.5 to 2 mg/L
Ratio of Sensitive/Total [1]: 10/10
MIC 50% [2]: 1 mg/L
MIC 90% [2]: >32 mg/L
Ratio of Sensitive/Total [2]: 5/10
MIC 50% [3]: 0.25 mg/L
MIC 90% [3]: 1 mg/L
MIC Range [3]: 0.06 to 4 mg/L
Ratio of Sensitive/Total [3]: 10/10
MIC 50% [4]: 0.25 mg/L
MIC 90% [4]: 16 mg/L
Ratio of Sensitive/Total [4]: 8/10
MIC 50% [5]: >32 mg/L
MIC 90% [5]: >32 mg/L
Ratio of Sensitive/Total [5]: 0/20
Ratio of Sensitive/Total [6]: 0/5
MIC 50% [7]: >32 mg/L
MIC 90% [7]: >32 mg/L
Ratio of Sensitive/Total [7]: 0/10
MIC 50% ([8]; 10 clinical isolates): >32 mg/L
MIC 90% ([8]; 10 clinical isolates): >32 mg/L
Ratio of Sensitive/Total ([8]; 10 clinical isolates): 0/10
MIC 50% [9]: >32 mg/L
MIC 90% [9]: >32 mg/L
Ratio of Sensitive/Total [9]: 0/20

Gentamicin
MIC 50% [1]: 0.5 mg/L
MIC 90% [1]: 0.5 mg/L
MIC Range [1]: 0.25 to 0.5 mg/L
Ratio of Sensitive/Total [1]: 10/10
MIC 50% [2]: 0.5 mg/L
MIC 90% [2]: 0.5 mg/L
MIC Range [2]: 0.25 to 1 mg/L
Ratio of Sensitive/Total [2]: 10/10
MIC 50% [3]: 0.125 mg/L
MIC 90% [3]: 4 mg/L
MIC Range [3]: 0.03 to 8 mg/L
Ratio of Sensitive/Total [3]: 9/10
MIC 50% [4]: 0.125 mg/L
MIC 90% [4]: >16 mg/L
Ratio of Sensitive/Total [4]: 6/10
MIC 50% [5]: 8 mg/L
MIC 90% [5]: >16 mg/L
Ratio of Sensitive/Total [5]: 1/20
MIC Range [6]: 8 to 16 mg/L
Ratio of Sensitive/Total [6]: 0/5
MIC 50% [7]: 16 mg/L
MIC 90% [7]: 16 mg/L
MIC Range [7]: 8 to 16 mg/L
Ratio of Sensitive/Total [7]: 0/10
MIC 50% ([8]; 10 clinical isolates): 16 mg/L
MIC 90% ([8]; 10 clinical isolates): >16 mg/L
Ratio of Sensitive/Total ([8]; 10 clinical isolates): 0/10
MIC 50% [9]: 8 mg/L
MIC 90% [9]: 16 mg/L
Ratio of Sensitive/Total [9]: 9/20

NC[C@H]1O[C@H](O[C@H]2[C@H](O)[C@@H](O[C@H]3O[C@H](CO)[C@@H](O)[C@H](N)[C@H]3O)[C@H](N)C[C@@H]2N)[C@H](N)C[C@@H]1O [Tobramycin]
MIC Range [1]: 0.5 to 1 mg/L
Ratio of Sensitive/Total [1]: 10/10
MIC50 [1]: 0.5 mg/L (≈ 1.07 µM)
MIC90 [1]: 0.5 mg/L (≈ 1.07 µM)
Ratio of Sensitive/Total [2]: 6/10
MIC50 [2]: 1 mg/L (≈ 2.14 µM)
MIC90 [2]: > 32 mg/L
MIC Range [3]: 0.06 to 4 mg/L
Ratio of Sensitive/Total [3]: 10/10
MIC50 [3]: 0.06 mg/L (≈ 0.128 µM)
MIC90 [3]: 4 mg/L (≈ 8.56 µM)
Ratio of Sensitive/Total [4]: 5/10
MIC50 [4]: 0.06 mg/L (≈ 0.128 µM)
MIC90 [4]: > 32 mg/L
Ratio of Sensitive/Total [5]: 0/20
MIC50 [5]: 16 mg/L (≈ 34.2 µM)
MIC90 [5]: > 32 mg/L
Ratio of Sensitive/Total [6]: 0/5
MIC Range [7]: 16 to 32 mg/L
Ratio of Sensitive/Total [7]: 0/10
MIC50 [7]: 16 mg/L (≈ 34.2 µM)
MIC90 [7]: 32 mg/L (≈ 68.4 µM)
Ratio of Sensitive/Total ([8]; 10 clinical isolates): 0/10
MIC50 ([8]; 10 clinical isolates): 32 mg/L (≈ 68.4 µM)
MIC90 ([8]; 10 clinical isolates): > 32 mg/L
MIC Range [9]: 4 to 32 mg/L
Ratio of Sensitive/Total [9]: 1/20
MIC50 [9]: 16 mg/L (≈ 34.2 µM)
MIC90 [9]: 32 mg/L (≈ 68.4 µM)

Penicillin
MIC ([7]; serotype 3): 0.015 mg/L
MIC ([7]; serotype 4): 0.015 mg/L
MIC ([7]; serotype 7F): 0.015 mg/L
MIC ([7]; serotype 8): 0.015 mg/L
MIC ([7]; serotype 9(V)): 0.03 mg/L
MIC ([7]; serotype 11(A)): 0.06 mg/L
MIC ([7]; serotype 19F): 0.03 mg/L
MIC ([7]; serotype 23(F)): 0.015 mg/L
MIC ([8]; single isolate, serotype 23(F)): 2 mg/L
